Assay results taken from patent US5721106A, “In Vitro method for screening β-amyloid deposition” (Regents of the University of Minnesota, priority 1994, dated 1998).
Ends that are not written are not given here.

Columns and labels:
AD plaques = assay: Deposition of ^125 I-labelled β-amyloid peptides onto plaques in AD brain tissue (homogenate binding, autoradiography); parameters: species or system human
Method: Fragments labelled in accordance with the method described herein can be combined with amyloid plaque derived from Alzheimer's disease tissue or other amyloid substance such as silk, and tested for activity, for example, their ability to deposit on these materials.
Brain tissue was obtained form normal and Alzheimer's disease patients at 0.5 to 14 hours postmortem, frozen on dry ice after collection, and stored at -20° C. until use. For filter binding studies, tissue homogenates were prepared after the method of H. P. Too and M. R. Hanley, Biochem. J. 252:545 (1988), the disclosure of which is incorporated by reference herein. Tissue was homogenized (Polytron, setting 7-8, 5-10 sec) in 5-10 volumes of 50 mM Tricine (pH 7.5) containing 10% sucrose and protease inhibitors (0.01% bacitracin, 0.002% soybean trypsin inhibitor, 0.0002% chicken egg trypsin inhibitor, 1 mM benzamidine hydrochloride) and pelleted at 10,000 g for 20 minutes. The homogenate was then resuspended and washed several times in Tricine buffer containing 120 mM NaCl, 10 mM EDTA, 300 mM KCl and centrifuged at 40,000 g for 20 minutes and stored at -20° C. for less than two months. Membranes (equivalent to about 30 mg tissue) were resuspended in 0.5 ml 50 mM TrisHCl (pH 7.5) containing 1 mg/ml bovine serum albumin (BSA), 10 mM MnCl2, 0.004% bacitracin, 0.002% chymostatin, 0.004% leupeptin, 0.1% dimethylsulfoxide for 30 minutes prior to addition of the radioligand (10^-11 to 10^-9 M) and various concentrations of unlabelled peptides in the same buffer.
After incubating for two hours at room temperature, the homogenates (final volume 0.575 ml) were filtered through glass fiber filters (Whatman GF/D), presoaked for at least two hours in 1 mg/ml BSA and rinsed with 25 mM Tricine (pH 7.5). After washing twice with 25 mM TrisHCl (pH 7.5) at room temperature, the filters were counted in a gamma counter.
For tissue autoradiography, unfixed tissue was serially sectioned at 5-15 μm and thaw-mounted onto gelatin-coated slices. Slide-mounted sections were stored at -20° C. in closed boxes over desiccant for less than three months before use. Sections were preincubated for 30 minutes and incubated with the radioligand for two hours under the same conditions according to the aforedescribed homogenate binding study. Alternatively, 50 mM TrisHCl rather than Tricine may be used as the buffer. For estimating nonspecific binding, paired serial sections were incubated with the radioligand in the presence of a 10^4 to 10^5 fold excess of the unlabelled peptide. Following incubation with the radioligand, the slides were washed with 50 mM TrisHCl pH 7.5 (four times, two minutes each at 4° C.), then dried at 4° C. and stored in closed boxes over desiccant at room temperature overnight. The fully dried slides were then placed in apposition to tritium-sensitive film alongside iodinated standards. After one week's exposure at -20° C., the film was developed, fixed and washed. […] This approach generated film autoradiograms for quantitative densitometry,a high resolution emulsion autoradiograms for detailed histology, and a counterstained section for identification of cell types from each tissue section.
Briefly peptides were purchased or synthesized by fluorenemethoxycarbonyl chemistry on polystyrene resins, using acid-labile blocking groups for sidechain protection, cleaved with trifluoroacetic acid, and purified by RP-HPLC. […] Autoradiograms were quantitated by densitometry. […] To study the peptide fragments in water we developed a novel approach, measuring NMR data at 750 MHz using a prototype 10 mm ^1 H pulsed field gradient probe. Modified two-dimensional homonuclear TOCSY and NOESY experiments were measured at several pH values and structural information was derived using standard methods.

ceilan katia yarn (silk) = assay: Deposition of radiolabelled β-amyloid peptides onto silk; assay type: binding, Bombyx silkworm; settings: in the presence of Triton X-100 (FIG. 5)
Method: Peptide deposition was conducted and detected as described in Example 2, except that instead of using brain tissue obtained from patients with Alzheimer's disease, silk was used as a template for β-amyloid deposition. The silk specimens were wound about or placed on a glass microscope slide and treated exactly as a piece of Alzheimer's disease (AD) brain tissue was treated in Example 2, using the same solutions, incubations times, etc. Experiments involving AD brain sections and control fabrics, such as nylon and cotton, were conducted in parallel.
Although screens of the many available silks were done at pH 8.5, later experiments were conducted at a preferably lower pH. Silk deposition experiments were done in 96-well plates. Labelled β-amyloid peptide concentration ranged from 20-100 pM, and the amount of silk used per assay ranged 0.5 to 5 mg.

adult rat brain = assay: Binding of radiolabelled rat β-amyloid peptide to rat brain
silk = assay: deposition of radiolabelled peptide onto ceilan katia yarn with Triton X-100
[1] = biological target: amyloid plaques in Alzheimer's disease brain tissue (homogenates and thin sections); assay: deposition of labelled fragment

βA(1-40)-NH2: derivatized 40-mer, with a carboxyamide at the C-terminus
deposition activity of fragment (active / not active) (AD plaques; labelled fragment combined with AD amyloid plaque or silk, relative to βA(1-40)-OH): active | deposition of radiolabelled peptide onto ceilan katia yarn (silk) (ceilan katia yarn (silk)): active

Radiolabelled rat β-amyloid peptide^1-40: radiolabelled rat β-amyloid peptide 1-40 (DAEFGHDSGFEVRHQKLVFFAEDVGSNKGAIIGLMVGGVV; also: radiolabelled, label site not given here; UniProt P08592 672-711, looked up)
binding to Alzheimer's disease or normal human tissue (AD plaques): failed to bind | binding to adult rat brain (adult rat brain): failed to bind

B1: βA(26-42)-NH2 (peptide)
peptide: SNKGAIIGLMVGGVVIA-NH2
modifications: also: 125I-labelled after acylation with 4-hydroxyphenylpropionic acid, site not given here
fold activity relative to βA(1-40)-OH and βA(1-40)-NH2 (silk): 3 times | fold activity relative to β-amyloid peptide [1]: 3 fold
